Results on 1 compound are retold here after patent US8940775B2, “Use of derivatives of pentaphyrine as antimicrobial and disinfectant agents” (Universita' Degli Studi di Udine, priority 2010, dated 2015).

Assay type in all cases: cell-based
The test system of one series is S. aureus ATCC 6538. Put plainly: Photo-oxidation test, antibacterial activity on S. aureus. Particulars: for Percentage bacterial load die-off: initial 10^8 CFU/ml S. aureus, 100 W lamp, 40 W/m^2. As for the experimental part: The bacterial strains used in the photo-oxidation tests are S. aureus ATCC 6538 and E. hirae ATCC 10541. The bacterial culture in exponential phase is obtained by inoculation in 10 mL of Nutrient Broth No. 2 and incubation at 37° C. Next the culture is centrifuged for 15 minutes at 3200 rpm and the pellet is resuspended in PBS 0.01 M in order to obtain a bacterial concentration equal to about 10^8 CFU/mL (Abs600≈0.1). This suspension was used for the photo-oxidation tests in the conditions described hereunder.
The photo-oxidative treatment was carried out using various light sources: • Lamp A: 100 W incandescent lamp, able to irradiate the bacterial suspension with a fluence rate equal to 40 W/m^2. The […] component of the luminous radiation is removed by filtering the light through a layer of water equal to 0.5 cm; • Lamp B: blue LED lamp, with maximum emission at 473 nm, connected to a power supply that controls its fluence rate between 24 and 50 W/m^2; • Lamp C: lamp with blue LED, with maximum emission at 473 nm, with a fluence rate equal to 10 W/m^2; • Lamp D: lamp with red LED, with maximum emission at 635 nm, with a fluence rate equal to 10 W/m^2.
(§1) The luminous intensity supplied by the light sources was evaluated by radiometer (DeltaOhm HD 2302.0 equipped with LP 471 RAD sensor).
The photo-oxidation tests were performed on a culture volume equal to 1 mL, using a plate with 48 wells with diameter of 1 cm and capacity of 1.5 mL. The multi-well plate is positioned above a magnetic stirrer and under the light source. A volume of a 330 μM solution of PCCox in DMSO is added to the bacterial suspension in order to obtain various concentrations of the photosensitizer (0.05 μM, 0.5 μM, 5 μM and 20 μM). The solution is stirred by small magnetic anchors throughout the treatment. The intrinsic toxicity, i.e. the toxicity not induced by the light, of the PCCox was evaluated on bacterial cultures of S. aureus and E. hirae incubated for 60 minutes in the dark with various concentrations of PCCox: in FIG. 3 are reported the results obtained on S. aureus; similar results were obtained with E. hirae. The percentage of DMSO present in the culture treated never exceeds 6%. […] In FIG. 4 are reported the results obtained with E. hirae; similar results were obtained with S. aureus.
The duration of the treatment is different for S. aureus (15, 30 and 60 minutes) and E. hirae (60 and 120 minutes).
The influence of a step of incubation of the bacterial culture in the dark in the presence of the molecule was evaluated before the irradiation step. In FIG. 5 are reported the results obtained with S. aureus.
At each time interval, a volume of bacterial suspension of 100 μL is taken and is diluted in PBS 0.01 M using an optimum dilution factor for the bacterial culture. From each dilution, 100 μL of bacterial suspension is taken (1000 μL is taken from the samples of primary effluent), seeded in MSA medium for S. aureus and Mf-Enterococcus Selective Agar for E. hirae on Petri dishes and incubated in the dark at 37° C. for 18-24 hours. The same procedure is carried out for the control samples, used for testing the activity of PCCox in the dark and the vitality of the bacterial suspension, without photosensitizer, exposed to the light or incubated in the dark. These samples are analysed at the end of the treatment. Each test is carried out at least in triplicate, and the survival data in terms of CFU/mL are expressed as the mean and standard deviation. The percentage survival is calculated respect to the concentration of bacteria measured on the control sample exposed to the light, analysed at the end of the test.

The test system of the next series is E. hirae ATCC 10541. Put plainly: Photo-oxidation test, antibacterial activity on E. hirae. As to conditions: PCCox 20 μM; 120 min of illumination with lamp B at 50 W/m2; preliminary tests. As for the experimental part: The bacterial strains used in the photo-oxidation tests are S. aureus ATCC 6538 and E. hirae ATCC 10541. The bacterial culture in exponential phase is obtained by inoculation in 10 mL of Nutrient Broth No. 2 and incubation at 37° C. Next the culture is centrifuged for 15 minutes at 3200 rpm and the pellet is resuspended in PBS 0.01 M in order to obtain a bacterial concentration equal to about 10^8 CFU/mL (Abs600≈0.1). This suspension was used for the photo-oxidation tests in the conditions described hereunder. […]
as §1
(§2) The photo-oxidation tests were performed on a culture volume equal to 1 mL, using a plate with 48 wells with diameter of 1 cm and capacity of 1.5 mL. […] The intrinsic toxicity, i.e. the toxicity not induced by the light, of the PCCox was evaluated on bacterial cultures of S. aureus and E. hirae incubated for 60 minutes in the dark with various concentrations of PCCox: in FIG. 3 are reported the results obtained on S. aureus; similar results were obtained with E. hirae. […]
(§3) At each time interval, a volume of bacterial suspension of 100 μL is taken and is diluted in PBS 0.01 M using an optimum dilution factor for the bacterial culture. […] These samples are analysed at the end of the treatment. […]

Series [1] has as its system Gram-positive bacterial population of the genus Enterococcus. Put plainly: Photo-oxidation test on primary effluent of a purification plant. Particulars: PCCox 20 μM. As for the experimental part:
FIG. 12. Photo-oxidation test for evaluating the antibacterial activity of the pentaphyrine PCCox (concentration of solution 20 μM) on a real sample, in this case primary effluent of a purification plant for treating municipal waste. The activity of PCCox was evaluated with respect to the Gram-positive bacterial population of the genus Enterococcus, which is present in the sample treated at a concentration equal to 10^4 CFU/mL. The test was carried out with a source of blue light (473 nm) at a luminous intensity equal to 50 W/m^2. The percentage survival of enterococci following treatment with PCCox, in the experimental conditions, is equal to 31%. […]
as §2, §3

The subject of another series is S. aureus. The series is described as follows: Intrinsic toxicity of PCCox in the dark on bacterial cultures. Particulars: no light activation. As for the experimental part: FIG. 3. Toxicity test of the pentaphyrine PCCox evaluating the vitality of a bacterial culture of S. aureus incubated for 60 minutes in the dark with various concentrations of 20-(4-carboxyphenyl)-2,13-dimethyl-3,12-diethyl-[22] pentaphyrine (PCCox) (0.05 μM, 0.5 μM and 5 μM).
The photo-oxidation tests were performed on a culture volume equal to 1 mL, using a plate with 48 wells with diameter of 1 cm and capacity of 1.5 mL. The multi-well plate is positioned above a magnetic stirrer and under the light source. A volume of a 330 μM solution of PCCox in DMSO is added to the bacterial suspension in order to obtain various concentrations of the photosensitizer (0.05 μM, 0.5 μM, 5 μM and 20 μM). […] The intrinsic toxicity, i.e. the toxicity not induced by the light, of the PCCox was evaluated on bacterial cultures of S. aureus and E. hirae incubated for 60 minutes in the dark with various concentrations of PCCox: in FIG. 3 are reported the results obtained on S. aureus; similar results were obtained with E. hirae. […]
At each time interval, a volume of bacterial suspension of 100 μL is taken and is diluted in PBS 0.01 M using an optimum dilution factor for the bacterial culture. […] These samples are analysed at the end of the treatment. Each test is carried out at least in triplicate, and the survival data in terms of CFU/mL are expressed as the mean and standard deviation. […]

Several values for one entry are separate records, joined by “and”; a condition that tells them apart may be missing. Equal entries are not always repeated.

In the case of `CCC1=C(C)c2cc3nc(c(-c4ccc(C(=O)O)cc4)c4ccc(cc5nc(cc6ccc(cc1n2)[nH]6)C(CC)=C5C)[nH]4)C=C3` [PCCox, 20-(4-carboxyphenyl)-2,13-dimethyl-3,12-diethyl-[22] pentaphyrine], the “Percentage bacterial load die-off” value was 99.77% in the series with S. aureus ATCC 6538 (PCCox 0.05 μM, 15 min); 99.9% and 99.89% with S. aureus ATCC 6538 (PCCox 0.05 μM, 30 min); 99.97% in the series on S. aureus ATCC 6538 (PCCox 0.05 μM, 60 min); 100% in the series with S. aureus ATCC 6538 (PCCox 0.5 μM, 15 min); 99.99% with S. aureus ATCC 6538 (PCCox 0.5 μM, 30 min); 100% with S. aureus ATCC 6538 (PCCox 0.5 μM, 60 min). Further, the “Percentage bacterial load die-off” value with S. aureus ATCC 6538 (PCCox 5 μM, 15 min) was found to be 99.9988%; in the series with S. aureus ATCC 6538 (PCCox 5 μM, 30 min), 100%; in the series on S. aureus ATCC 6538 (PCCox 5 μM, 60 min), 100%. Besides, the bacterial load die-off in the series with S. aureus ATCC 6538 (PCCox 0.05 μM, 30 min of treatment, lamp A) was 3 log. Also, the die-off in the series with S. aureus ATCC 6538 (PCCox 5 μM, 60 min with lamp A (100 W, 40 W/m^2), initial load 10^11-10^13 CFU/ml) is 10 log; in the series with S. aureus ATCC 6538 (PCCox 5 μM, blue LED, maximum emission 473 nm, fluence rate between 24 and 50 W/m^2), 10 log; in the series on E. hirae ATCC 10541, 4 log; in series [1] (primary wastewater, in terms of E. hirae, blue light 50 W/m^2) it was “up to 70%”. The same compound yielded a bactericidal effect in the series on S. aureus ATCC 6538 (PCCox 5 μM, lamp C blue LED at 10 W/m^2, 60 min of illumination, pre-incubation 1 h in the dark) of 3 log. Further, the “influence of incubation time on bactericidal efficiency” value in the series on S. aureus ATCC 6538 (PCCox 5 μM, with or without pre-incubation in the dark for 1 h, blue light 24 W/m^2) was “not influenced in any way by the incubation time”. Further, the “initial bacterial load destroyed” value in the series with S. aureus ATCC 6538 (PCCox 5 μM, within 15 min of exposure to the light, initial load 10^8-10^13 CFU/ml) came out at 99.999%. For the same compound, the “bactericidal effect (phototoxic efficacy)” value with S. aureus ATCC 6538 (white light (lamp A, 40 W/m^2), after 15 min of irradiation) is reported as 5 log. Further, the “percentage survival of enterococci” value in series [1] (primary effluent, 10^4 CFU/mL, blue light 473 nm, 50 W/m^2) was 31%. Moreover, the “bactericidal activity in the dark” value in the series with S. aureus was “does not have bactericidal activity in the dark”.
